This is an account of results in US20140194374A1, “Anthelmintic Formulations and Treatments” (VIRBAC, priority 2011, published 2014).

The subject of the assay is ML resistant Cooperia strains. The settings on record: doses ¼ to ⅓rd lower than the standard label dose (7.5 mg/kg).

Experimental: Individual faecal samples (for individual egg count and group larval culture) were collected as per protocol at 7 days intervals at Days 7, 14, 21, 28, 35, 42 and 49. […] Weighing was performed at the beginning, middle, and end of 49 day trial.

As to `c1ccc([C@H]2CN3CCSC3=N2)cc1` [levamisole], the “Control of ML resistant Cooperia strains” value stood at 100%.
